# Experimental data: patent EP4810509A1, “INSECT NEUROPEPTIDES 7” (Solasta Bio Limited, priority 2022, dated 2024)
# Experiments:
# Assay type in all cases: in vivo
# Myzus persicae = assay: Field trials; settings: unformulated; acting comparably to commercial insecticides
# Procedure: (§1) Field trials for peptide SB-P-66, unformulated, against various insects were conducted by third-party organisations PGRO and AgriScience.
# Bumblebee = assay: Bee oral toxicity test (adapted from OECD Test No. 247: Bumblebee, Acute Oral Toxicity Test); settings: % survival after 96 hours of application, compared with sucrose or vehicle and with Imidacloprid (Figure 9)
# Procedure: Bee oral testing protocol was carried out adapted from OECD Test No. 247: Bumblebee, Acute Oral Toxicity Test. The toxicity of SB-P-66 was compared with a negative control of sucrose or vehicle, and with a current commercial insecticide Imidacloprid.
# Aphis gossypii = assay: Field trials, naturally infested plants (AgriScience, cotton and melon); settings: unformulated, acting comparably to commercial insecticides (Figures 11, 12)
# Procedure: (§2) A) and 16 days after second application (App.
# as §1
# Myzus persicae aphids = assay: Leaf dip assay (based on IRAC susceptibility test method 019), mortality assessment; settings: unformulated, mortality assessed at 72, 96 and 120 hours, compared to negative control vehicle and Spirotetramat (Figures 6-8)
# Procedure: The assay was carried out based on IRAC susceptibility test method 019 (https://irac-online.org/methods/aphids-adultnymphs/).
# Fill a small 4 cm wide 3 cm high dish with a 1% agar treatment solution of the active chemical or control (ensuring 1 cm gap between the agar and the lid) and leave to set. Dip a 2.5 cm leaf disc into 3 ml of treatment solution allowing the treatment to coat the leaf. Leave the disc to dry for 1 hour and place onto the set agar. Place insects (Myzus persicae aphids) onto each of the leaf discs. Each unit is sealed with a close-fitting, ventilated lid. Place the agar dishes in a small plastic tray lined with moist tissue paper and ensure the water trays in the bottom of the incubator are filled with clean water and place within the incubator. An assessment of mortality is made at 72, 96 and 120 hours. Leaf dip assays were performed with SB-P-66, and compared to a negative control vehicle and a current commercial insecticide Spirotetramat. The activity of SB-P-66 is shown in Figures 6 and 7; SB-P-66 has good activity whilst being eco-friendly and targeted to specific pests unlike broad spectrum chemical insecticides such as Spirotetramat.
# [1] = system: Amrasca biguttula (leaf hopper); assay: Field trials, naturally infested plants; settings: unformulated; over time; acting comparably to commercial insecticides (Figure 14)
# Procedure: as §2, §1
# Aphis fabae = assay: Field trials, naturally infested plants (PGRO, vining peas); settings: unformulated, acting comparably to commercial insecticides (Figures 10, 13)
# Procedure: as §2, §1
substance,measurement,setting,value
"H-PAFSSWG-NH2 [SB-P-66, [Hy]-PAFSSWG-[NH2]]",efficacy in field trials against Myzus persicae,Myzus persicae,good efficacy
same,bee oral toxicity (% survival),Bumblebee,far lower toxicity
same,efficacy in field trials against Aphis gossypii,Aphis gossypii,good efficacy
same,activity against Myzus persicae (mortality),Myzus persicae aphids,good activity
same,efficacy in field trials against Amrasca biguttula,[1],good efficacy
same,efficacy in field trials against Aphis fabae,Aphis fabae,good efficacy
